# Laboratory results published in patent US9604940B2 (Chroma Therapeutics Ltd., priority 2012, dated 2017).
# pIC50: −log10 of the molar value.
# Experiments:
# CSF1R (FMS) = target: T1, CSF1R (FMS) (Homo sapiens, UniProt P07333); experiment: CSF1R (FMS) kinase activity, Z'-LYTE biochemical assay (Invitrogen); conditions: ATP at or close to Km, 60 minute reaction at room temperature, read-out: Inhibitor activity versus CSF-1
# T1 construct: purchased Invitrogen (Paisley, UK)
# MCP-1 = experiment: MCSF-stimulation of human whole blood, MCP-1 levels by sandwich ELISA; assay type: cell-based; conditions: inhibitor 2 hours before MCSF 50 ng/ml, 22 hrs, MCP-1 in cell-free supernatants, read-out: Inhibitor activity versus MCP-1
# T1 sequence (P07333 20-972): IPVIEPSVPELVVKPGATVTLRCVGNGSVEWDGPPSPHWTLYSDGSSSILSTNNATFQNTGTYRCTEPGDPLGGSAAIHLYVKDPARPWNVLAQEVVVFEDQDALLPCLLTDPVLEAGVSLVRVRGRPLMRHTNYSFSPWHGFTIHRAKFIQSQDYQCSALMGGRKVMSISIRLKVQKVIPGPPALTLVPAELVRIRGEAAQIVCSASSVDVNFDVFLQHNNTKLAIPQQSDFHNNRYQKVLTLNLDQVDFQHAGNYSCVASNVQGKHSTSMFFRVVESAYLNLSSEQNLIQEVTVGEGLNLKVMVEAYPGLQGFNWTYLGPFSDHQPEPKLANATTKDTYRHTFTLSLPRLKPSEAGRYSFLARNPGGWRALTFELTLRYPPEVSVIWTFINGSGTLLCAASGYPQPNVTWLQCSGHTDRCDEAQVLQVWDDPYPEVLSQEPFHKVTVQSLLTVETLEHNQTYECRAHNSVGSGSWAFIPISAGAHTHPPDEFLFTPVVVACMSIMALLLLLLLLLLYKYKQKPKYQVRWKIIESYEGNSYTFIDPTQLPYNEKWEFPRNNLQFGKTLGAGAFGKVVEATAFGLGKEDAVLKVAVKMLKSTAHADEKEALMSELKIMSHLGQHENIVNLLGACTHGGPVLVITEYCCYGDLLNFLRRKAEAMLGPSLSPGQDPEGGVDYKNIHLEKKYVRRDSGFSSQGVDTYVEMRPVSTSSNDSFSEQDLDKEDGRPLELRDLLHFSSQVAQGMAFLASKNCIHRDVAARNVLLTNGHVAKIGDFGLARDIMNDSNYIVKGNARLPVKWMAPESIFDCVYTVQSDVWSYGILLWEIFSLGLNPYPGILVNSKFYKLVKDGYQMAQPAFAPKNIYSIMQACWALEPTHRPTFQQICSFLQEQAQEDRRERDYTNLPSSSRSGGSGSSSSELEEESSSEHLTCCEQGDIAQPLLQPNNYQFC
pIC50 (CSF1R (FMS)),pIC50 (MCP-1),Structure (SMILES)
6.52 to 7.00,6.00 to 6.52,"Nc1ncc(-c2cnn(CCNC3CCN[C@H](C(=O)OC4CCCC4)C3)c2)nc1NCc1c(Cl)cccc1Cl (stereo partly drawn) [Example 56, Cyclopentyl (2S)-4-{[2-(4-{5-amino-6-[(2,6-dichlorobenzyl)amino]pyrazin-2-yl}-1H-pyrazol-1-yl)ethyl]amino}piperidine-2-carboxylate di-formate]"
5.30 to 6.00,5.30 to 6.00,"CC(C)C[C@H](NCCn1cc(-c2cnc(N)c(NCc3c(Cl)cccc3Cl)n2)cn1)C(=O)OC1CCCC1 [Example 57, Cyclopentyl N-[2-(4-{5-amino-6-[(2,6-dichlorobenzyl)amino]pyrazin-2-yl}-1H-pyrazol-1-yl)ethyl]-L-leucinate]"
< 5.30,< 5.30,"CC(C)C[C@H](NCCn1cc(-c2cnc(N)c(NCc3c(Cl)cccc3Cl)n2)cn1)C(=O)OC(C)(C)C [Example 58, tert-Butyl N-[2-(4-{5-amino-6-[(2,6-dichlorobenzyl)amino]pyrazin-2-yl}-1H-pyrazol-1-yl)ethyl]-L-leucinate]"
